Read-outs that look alike come from different tables or passages of the source.
What was measured:
[1] = system: thyroid hormone receptor (endogenous TRα and TRβ); assay: GH3-TRE-Antag primary qHTS, luciferase reporter, antagonist mode with 1 nM T3 (TOX21_TR_LUC_GH3_Antagonist, aeid 804); assay type: cell-based, rat; conditions: antagonist mode, 1 nM T3; read-out: GH3-TRE-Antag AC50
[2] = system: thyroid hormone receptor (endogenous TRα and TRβ); assay: GH3-TRE-Ag primary qHTS, luciferase reporter, agonist mode (TOX21_TR_LUC_GH3_Agonist, aeid 803); assay type: cell-based, rat; conditions: for AC50: read-out: GH3-TRE-Ag AC50; for GH3-TRE-Ag AC50 hitc: hit call from tcpl
[3] = GH3-TRE-Via cell viability, CellTiter-Fluor (TOX21_TR_LUC_GH3_Antagonist_viability, aeid 805); conditions: rat
[4] = system: Tox21 cell viability assays (different cell types); assay: Global cytotoxicity: eighteen Tox21 cell viability assays; assay type: cell-based
[5] = as above; assay type: cell-based; conditions: read-out: Global cytotoxicity AC50 median
GH3-TRE-Luc cell line [6] = conditions: for TR_LUC_GH3_Antagonist_viability hitc: rat, 24 h
in vitro = conditions: rat, gh3-tre-luc cells, AC50 (uM) modified / 1000
[7] = biological target: T1, TRα ligand-binding domain (Homo sapiens, UniProt P10827); assay: TRa-coa LanthaScreen TR-FRET coactivator (SRC-2 peptide) recruitment, agonist (TOX21_TRA_COA_Agonist_Followup_ratio, aeid 2230); assay type: biochemical; conditions: for AC50: cell-free coactivator recruitment, read-out: TRa-coa-Ag AC50; for TRa-coa hitc: hit call from tcpl, agonist; for Emax: read-out: EMax (% of Control) tra-coa-agonist-followup-1
T1 construct: the receptor LBDs expressed as glutathione S-transferase (GST) fusion proteins; purchased

[8] = system: thyroid hormone receptor (TR); assay: Classification of TR actives across characterization assays (TR-Ag / RXR-Ag; TR model binary); conditions: for Categorization Code: TR agonist characterization; for Classification: TR-Ag = TR agonist, RXR-Ag = RXR agonist
Summary of the method: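 Pharmaceuticals excluded; actives called from GH3-TRE qHTS (agonist, antagonist, viability) on 8,305 chemicals. Confirmation of 84 selected chemicals used GH3-TRE-Ag, mammalian one-hybrid TRβ and RXRα UAS-bla HEK 293T specificity screens, parental HEK293T viability, and two TR:coactivator recruitment assays.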

[9] = biological target: T2, human TRβ ligand-binding domain (Homo sapiens, UniProt P10828); assay: TRb-bla agonist mammalian one-hybrid beta-lactamase assay (TOX21_TRB_BLA_Agonist_Followup_ratio, aeid 2236); assay type: cell-based; parameters: host or cells: GeneBLAzer UAS-bla HEK 293T; conditions: for AC50: HEK 293T one-hybrid, agonist mode, read-out: TRb-bla-Ag AC50; for TRb-bla hitc: hit call from tcpl, agonist; for Emax: read-out: EMax (% of Control) trb-bla-agonist-followup-1
T2 sequence (P10828 217-461 limits assumed): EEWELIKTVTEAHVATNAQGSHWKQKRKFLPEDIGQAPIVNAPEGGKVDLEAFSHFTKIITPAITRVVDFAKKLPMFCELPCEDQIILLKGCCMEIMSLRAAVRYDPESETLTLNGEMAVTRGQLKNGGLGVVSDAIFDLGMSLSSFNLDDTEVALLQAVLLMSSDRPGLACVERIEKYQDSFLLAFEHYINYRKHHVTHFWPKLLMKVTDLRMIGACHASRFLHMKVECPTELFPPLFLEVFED

[10] = system: thyroid hormone receptor (endogenous TRα and TRβ); assay: GH3-TRE-Ag-Followup confirmation (TOX21_TR_LUC_GH3_Agonist_Followup, aeid 2226); assay type: cell-based, rat; conditions: for AC50: confirmation, agonist mode, read-out: GH3-TRE-Ag-Followup AC50; for GH3-TRE-Ag-Followup hitc: hit call from tcpl
[11] = biological target: T2, human TRβ ligand-binding domain; assay: TRb-coa LanthaScreen TR-FRET coactivator (SRC-2 peptide) recruitment, agonist (TOX21_TRB_COA_Agonist_Followup_ratio, aeid 2244); assay type: biochemical; parameters: host or cells: GeneBLAzer UAS-bla HEK 293T; conditions: for AC50: cell-free coactivator recruitment, read-out: TRb-coa-Ag AC50; for TRb-coa hitc: hit call from tcpl, agonist; for Emax: read-out: EMax (% of Control) trb-coa-agonist-followup-1
GH3-TRE-Luc cell line [12] = assay: GH3-TRE-Via cell viability, CellTiter-Fluor (TOX21_TR_LUC_GH3_Antagonist_viability, aeid 805); conditions: hit call from tcpl
human RXRα = biological target: T3, human RXRα (Homo sapiens, UniProt P19793); assay: RXRa-bla-Ag mammalian one-hybrid beta-lactamase assay (TOX21_TR_RXR_BLA_Agonist_Followup_ratio, aeid 2253); assay type: cell-based; conditions: for AC50: HEK 293T one-hybrid, agonist mode, inactive set to 1,000, read-out: RXRa-bla-Ag AC50; for tr-followup-rxr-bla-agonist-1 hitc: hit call from tcpl
T3 construct: host or cells: GeneBLAzer UAS-bla HEK 293T
T3 sequence (P19793 227-458 limits assumed): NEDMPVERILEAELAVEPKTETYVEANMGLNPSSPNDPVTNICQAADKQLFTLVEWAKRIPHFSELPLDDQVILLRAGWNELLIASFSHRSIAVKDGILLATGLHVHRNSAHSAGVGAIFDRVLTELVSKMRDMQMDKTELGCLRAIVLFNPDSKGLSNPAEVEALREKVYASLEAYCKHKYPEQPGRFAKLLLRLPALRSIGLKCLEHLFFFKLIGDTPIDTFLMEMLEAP

[13] = antagonist candidates, inactive samples arbitrarily set to AC50=1,000 μM
[14] = median over 18 Tox21 cell viability assays, inactive set to 1,000
[15] = median over Tox21 viability assays
[16] = median over 18 Tox21 cell viability assays (Judson et al. 2016, invitrodb_v2)
[17] = primary qHTS, agonist mode, 24 h, top concentration 92 μM
[18] = read-out: EMax (% of Control) tr-followup-rxr-bla-agonist-1
[19] = # active of 18 total Tox21 viability assays

T1 sequence (P10827 163-410 isoform P10827-2 limits assumed, other chains not shown): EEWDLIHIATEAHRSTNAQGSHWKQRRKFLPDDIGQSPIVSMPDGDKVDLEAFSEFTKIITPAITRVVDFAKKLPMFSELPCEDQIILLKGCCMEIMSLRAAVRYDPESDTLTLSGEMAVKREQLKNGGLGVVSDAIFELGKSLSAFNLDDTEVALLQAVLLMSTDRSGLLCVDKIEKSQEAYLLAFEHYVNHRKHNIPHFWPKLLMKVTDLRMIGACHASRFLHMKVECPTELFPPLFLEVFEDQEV

SMILES	AC50 at 24 h [3] [µM]	AC50 [7] [µM]	TRa-coa hitc [7]	Emax [7] [%]	Categorization Code [8]	Classification [8]	AC50 [9] [µM]	TRb-bla hitc [9]	Emax [9] [%]	EMax (% of Control) gh3-tre-agonist [2]	GH3-TRE-Ag AC50 hitc [2]	GLOBAL CYTOTOXICITY cytotox.median [4, 15]	AC50 [5, 16] [µM]	EMax (% of Control) gh3-tre-agonist-followup-1_agonist [10]	AC50 [10] [µM]	GH3-TRE-Ag-Followup hitc [10]	AC50 [11] [µM]	TRb-coa hitc [11]	Emax [11] [%]	TR_LUC_GH3_Antagonist_viability hitc (GH3-TRE-Luc cell line [12])	further results
Nc1nc(F)nc2c1ncn2[C@@H]1O[C@H](CO)[C@@H](O)[C@@H]1O [Fludarabine, reference compound]	22.3	–	–	–	–	–	–	–	–	–	–	–	–	–	–	–	–	–	–	–	AC50 [1]: 16.3 µM; AC50 [2, 13]: > 92 µM; Active in global cytotoxicity assays (%) [4]: 1.7%; AC50 [5, 14]: > 92 µM
N#CC(c1ccc(Cl)cc1)c1c(Cl)cc(-n2ncc(=O)[nH]c2=O)cc1Cl (centres unmarked) [Diclazuril]	> 92	–	–	–	–	–	–	–	–	–	–	–	–	–	–	–	–	–	–	–	AC50 [2, 13]: > 92 µM; cytotoxicity in GH3 viability assay (GH3-TRE-Luc cell line [6]): lacked cytotoxicity; CC50 at 24 h (in vitro): > 50 µM; Active in global cytotoxicity assays (%) [4]: 33.3%; active rate in Tox21 viability/cytotoxicity assays [4]: 33%; AC50 [5, 14]: 33 µM
CC1=C(/C=C/C(C)=C\C=C\C(C)=C\C(=O)O)C(C)(C)CCC1 [9-cis Retinoic acid, reference compound]	> 92	> 92	0	-0.13	RXR-Ag	RXR-Ag	> 92	0	5.7	31.8 % of Control	1	>92	> 92	76.0 % of Control	2.07	1	> 92	0	-0.274	–	TR_LUC_GH3_Antagonist_viability hitc (GH3-TRE-Luc cell line [6]): 0; GLOBAL CYTOTOXICITY cytotox.number_Active [4]: 0
CC1=C(/C=C/C(C)=C/C=C/C(C)=C/C(=O)O)C(C)(C)CCC1 [all trans-Retinoic acid, reference compound]	66.7	> 92	0	-0.347	RXR-Ag	RXR-Ag	–	1	31.1	29.3 % of Control	1	>92	> 92	97.2 % of Control	1.16	1	> 92	0	0	–	AC50 [2, 17]: 0.234 µM; TR_LUC_GH3_Antagonist_viability hitc (GH3-TRE-Luc cell line [6]): 1; GLOBAL CYTOTOXICITY cytotox.number_Active [4]: 0
C[C@]12CC[C@H]3C(=CCc4cc(O)ccc43)[C@@H]1CCC2=O [Equilin, reference compound]	85.1	> 92	0	1.7	RXR-Ag	RXR-Ag	> 92	0	13.5	90.8 % of Control	1	>92	> 92	6.3 % of Control	> 92	0	> 92	0	-0.4	1	AC50 (human RXRα): 0.986 µM; tr-followup-rxr-bla-agonist-1 hitc (human RXRα): 1; Emax (human RXRα; [18]): 61.3%; GLOBAL CYTOTOXICITY cytotox.number_Active [4, 19]: 0
CC(C)(C)CC(C)(C)c1ccc(O)c(Cc2ccc(Cl)cc2Cl)c1 [Clofoctol, reference compound]	8.04	8.92	1	55.5	RXR-Ag	RXR-Ag	> 92	0	–	23.6 % of Control	1	16.7	16.7	34.4 % of Control	3	1	8.93	1	64.9	1	AC50 (human RXRα): 6.8 µM; tr-followup-rxr-bla-agonist-1 hitc (human RXRα): 1; Emax (human RXRα; [18]): 36.1%; Emax (human RXRα; read-out: EMax in RXR assay): 36%; GLOBAL CYTOTOXICITY cytotox.number_Active [4, 19]: 16
N[C@@H](Cc1cc(I)c(Oc2cc(I)c(O)c(I)c2)c(I)c1)C(=O)O [Levothyroxine, reference compound]	> 92	–	1	171	TR-Ag	TR-Ag	–	–	–	117.2 % of Control	1	>92	> 92	100.3 % of Control	–	1	–	–	–	0	AC50 [2, 17]: 0.0061 µM; AC50 (human RXRα): 1.36 µM; tr-followup-rxr-bla-agonist-1 hitc (human RXRα): 0; Emax (human RXRα; [18]): 21.2%; GLOBAL CYTOTOXICITY cytotox.number_Active [4, 19]: 0
O=C(O)Cc1cc(I)c(Oc2cc(I)c(O)c(I)c2)c(I)c1 [Tetrac, 3,3ʹ,5,5ʹ-tetraiodothyroacetic acid]	51.3	0.248	1	153	TR-Ag	TR-Ag	0.0209	1	204	113.5 % of Control	1	35.7	35.7	123.6 % of Control	0.006	1	0.227	1	122	1	TR_LUC_GH3_Agonist_EMAX (% Control) ([2]; Table S5): 105.7 % Control; tr-followup-rxr-bla-agonist-1 hitc (human RXRα): 1; Emax (human RXRα; [18]): 61.6%; GLOBAL CYTOTOXICITY cytotox.number_Active [4, 19]: 5
Cc1ccc2c(Cl)cc(Cl)c(O)c2n1 [5,7-Dichloro-8-hydroxy-2-methylquinoline]	1.56	–	–	–	–	–	–	–	–	–	–	–	–	–	–	–	–	–	–	–	AC50 [1]: 1.5 µM; AC50 [2, 13]: > 92 µM; Active in global cytotoxicity assays (%) ([4]; percentage of 18 Tox21 viability assays with hitc=1): 13.6%; AC50 [5, 14]: 13.6 µM
CC1=C(/C=C/C(C)=C/C=C/C(C)=C\C(=O)O)C(C)(C)CCC1 [13-cis Retinoic acid, reference compound]	81.3	> 92	0	-0.319	RXR-Ag	RXR-Ag	> 92	0	6.8	29.3 % of Control	1	–	46.3	46.3 % of Control	0.0348	1	> 92	0	-0.0945	–	activity in TRβ-bla as agonist [9]: not active; activity in GH3-TRE agonist assay [2]: partial agonist; EMax in GH3-TRE-Ag assay ([2]; percent of positive control T3): 24 % of control; TR_LUC_GH3_Antagonist_viability hitc (GH3-TRE-Luc cell line [6]): 1; GLOBAL CYTOTOXICITY cytotox.median [4]: 46.3; GLOBAL CYTOTOXICITY cytotox.number_Active [4]: 5; activity in TRb-coa biochemical assay [11]: not active
